Laboratory results as given in article PMC11839852, “Preclinical comparison of (radio)lanthanides using mass spectrometry and nuclear imaging techniques: biodistribution of lanthanide-based tumor-targeting agents and lanthanides in ionic form” (European Journal of Nuclear Medicine and Molecular Imaging, 2024).

Tested on: non-tumor-bearing immunocompetent FVB mice
Assay: Dual-isotope SPECT/CT imaging of [177Lu]LuCl3 and [161Tb]TbCl3
Assay type: in vivo
Conditions: radiolanthanides in chloride form
Experimental: Dual-isotope SPECT studies with mice were performed as previously reported. Tumor-bearing nude mice (n = 2‒3 for each type of radioconjugate) were injected with 20 MBq (1 nmol) of a mixture of ^177Lu- and ^161Tb-labeled tumor-targeting agents (each 10 MBq, 0.5 nmol) diluted in saline containing 0.05% BSA. Non-tumor-bearing immunocompetent FVB mice (n = 2) were injected with 20 MBq of a mixture of [^177Lu]LuCl3 (10 MBq, 13.8 pmol) and [^161Tb]TbCl3 (10 MBq, 14.3 pmol) diluted with saline containing 0.05% BSA with a final pH value of 4.5. Additional mice (n = 2) were injected with colloids of lutetium-177 and terbium-161 obtained by diluting the chloride salts with PBS of pH 7.4 (Supplementary Material). SPECT/CT images were acquired 1 h, 4 h and 24 h after injection of the activity solutions using a dedicated small-animal SPECT/CT scanner (NanoSPECT/CT, Mediso Medical Imaging Systems, Budapest, Hungary) and the Nucline software (version 1.02, Mediso Ltd., Budapest, Hungary). Counts stemming from the γ-lines of lutetium-177 (112.9 keV ± 10% and 208.4 ± 10%) and the γ-lines and x-rays of terbium-161 (47.7 keV ± 10% and 74.6 keV ± 10%) were simultaneously registered using the respective energy windows for each radionuclide. […]

[Cl][Lu]([Cl])[Cl] [[^177Lu]LuCl3]
Bone uptake on SPECT images: higher bone uptake
